How the values were obtained:
CFTR = target: T1, CFTR (Homo sapiens, UniProt P13569, DEL508-508); assay: TECC24 AUC fold over DMSO @10 μM, CFTR-mediated transepithelial chloride transport in CF-HBE cells; type: cell-based; conditions: test agent AUC divided by DMSO vehicle AUC, primary CF-HBE cells, ΔF508 homozygous donor, 48 hours incubation
T1 construct: Primary human bronchial epithelial cells from a ΔF508 homozygous CF donor; host or cells: primary human bronchial epithelial cells (CF-HBE), ΔF508 homozygous donor
T1 sequence (P13569 with tags, fused parts or gaps DEL508-508): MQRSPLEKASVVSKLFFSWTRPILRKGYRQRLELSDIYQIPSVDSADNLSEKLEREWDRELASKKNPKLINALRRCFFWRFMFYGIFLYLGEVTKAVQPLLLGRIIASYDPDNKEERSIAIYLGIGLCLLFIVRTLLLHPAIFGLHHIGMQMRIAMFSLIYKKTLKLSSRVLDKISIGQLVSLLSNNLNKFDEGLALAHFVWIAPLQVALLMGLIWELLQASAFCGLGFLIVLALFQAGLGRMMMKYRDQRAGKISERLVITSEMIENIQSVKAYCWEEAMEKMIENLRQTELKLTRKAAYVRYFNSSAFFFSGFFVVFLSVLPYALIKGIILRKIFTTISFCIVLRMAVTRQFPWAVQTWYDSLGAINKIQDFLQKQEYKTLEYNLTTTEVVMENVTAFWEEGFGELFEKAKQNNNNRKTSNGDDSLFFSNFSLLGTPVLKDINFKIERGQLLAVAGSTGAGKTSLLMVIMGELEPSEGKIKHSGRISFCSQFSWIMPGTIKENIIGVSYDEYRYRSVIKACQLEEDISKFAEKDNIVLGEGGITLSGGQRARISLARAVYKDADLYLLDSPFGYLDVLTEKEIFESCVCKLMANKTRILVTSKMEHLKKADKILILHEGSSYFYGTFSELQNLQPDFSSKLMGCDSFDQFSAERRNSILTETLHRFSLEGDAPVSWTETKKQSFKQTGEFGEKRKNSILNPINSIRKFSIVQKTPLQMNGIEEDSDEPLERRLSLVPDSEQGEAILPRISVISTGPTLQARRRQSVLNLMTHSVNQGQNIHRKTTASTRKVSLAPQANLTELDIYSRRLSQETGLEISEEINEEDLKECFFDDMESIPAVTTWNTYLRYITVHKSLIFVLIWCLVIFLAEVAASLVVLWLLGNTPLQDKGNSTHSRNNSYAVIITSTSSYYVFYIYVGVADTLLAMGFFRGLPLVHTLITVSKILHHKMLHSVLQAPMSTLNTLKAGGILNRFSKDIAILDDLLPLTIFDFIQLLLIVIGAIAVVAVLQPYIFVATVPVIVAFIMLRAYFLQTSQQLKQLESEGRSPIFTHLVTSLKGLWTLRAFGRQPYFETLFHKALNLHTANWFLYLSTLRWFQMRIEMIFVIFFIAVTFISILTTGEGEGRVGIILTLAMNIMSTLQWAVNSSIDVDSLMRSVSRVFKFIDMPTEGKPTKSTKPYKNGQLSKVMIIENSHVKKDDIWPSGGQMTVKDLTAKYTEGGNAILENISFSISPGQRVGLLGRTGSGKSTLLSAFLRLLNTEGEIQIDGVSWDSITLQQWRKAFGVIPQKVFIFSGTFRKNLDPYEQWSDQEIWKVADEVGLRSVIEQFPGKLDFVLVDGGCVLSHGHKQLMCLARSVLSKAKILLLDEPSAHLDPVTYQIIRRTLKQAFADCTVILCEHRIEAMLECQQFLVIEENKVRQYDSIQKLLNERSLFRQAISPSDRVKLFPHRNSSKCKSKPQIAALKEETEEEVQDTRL
How it was run: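 Primary ΔF508-homozygous CF bronchial epithelial cells on inserts were incubated 48 h at 36.5 °C with compound in IL-13-containing medium. VT and TEER were then recorded in current-clamp mode (pH 7.4 HEPES bath) with benzamil 10 μM, forskolin 10 μM, then CFTR inhibitor-172 20 μM. The IEQ AUC between forskolin and inhibitor was divided by vehicle AUC.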

NBD1 = target: T2, NBD1 (Homo sapiens, UniProt P13569); assay: Aggregation analysis using differential static light scattering (DSLS), thermal stability of NBD1 (ΔTagg); type: binding; conditions: ΔTagg versus DMSO control, NBD1 0.2 mg/ml
T2 construct: Purified recombinant NBD1 was produced using previously described methods; made in house
T2 sequence (P13569 423-646 limits assumed): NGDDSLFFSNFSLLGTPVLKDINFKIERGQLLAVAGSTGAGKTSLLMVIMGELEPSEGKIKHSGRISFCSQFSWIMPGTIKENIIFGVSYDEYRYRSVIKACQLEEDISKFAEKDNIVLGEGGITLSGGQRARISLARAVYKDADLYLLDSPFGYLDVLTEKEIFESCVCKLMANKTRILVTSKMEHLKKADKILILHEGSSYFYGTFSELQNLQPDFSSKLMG
How it was run: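 NBD1 0.2 mg/ml, S200 buffer (50 mM Tris-HCl, 150 mM NaCl, 5 mM MgCl2, 2 mM ATP, 2 mM DTT, pH7.6) + 1% glycerol; cpd in DMSO; oil overlay. Ramp 25→70° C. at 1° C./min, DSLS images every 0.5° C. ΔTagg = Tagg (inflection) − mean DMSO Tagg.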

Structure (SMILES) | TECC (AUC, 10 μM) (CFTR) | DSLS 3D (100 μM ΔT) (NBD1)
Cn1nc2nc1-c1cc(ccc1F)Oc1c(F)cc3[nH]ccc3c1CCS(=O)(=O)CC(C)(C)OCCC2(C)c1cccc(CC(=O)O)c1 (single isomer, unassigned) [Compound 5B, 2-[3-(22,28-Difluoro-3,6,10,10-tetramethyl-12,12-dioxo-9,24-dioxa-12λ^6-thia-3,4,19,30-tetrazapentacyclo[23.3.1.12,5.015,23.016,20]triaconta-1(29),2(30),4,15,17,20,22,25,27-nonaen-6-yl)phenyl]acetic Acid] | B (a value between 12-20 is marked “B”) | B (a value above 5 °C and less than or equal to 10 °C is marked “B”)
C[C@H](Cc1cccc(C2(C)CCCC(C)(C)CS(=O)(=O)CCc3c(c(F)cc4[nH]ccc34)Oc3ccc(F)c(c3)-c3nc2nn3C)c1)C(=O)O (single isomer, unassigned) [Compound 6A] | B (a value between 12-20 is marked “B”) | C (a value greater than 10 °C and less than or equal to 25 °C is marked “C”)
C[C@H](Cc1cccc(C2(C)CCCC(C)(C)CS(=O)(=O)CCc3c(c(F)cc4[nH]ccc34)Oc3ccc(F)c(c3)-c3nc2nn3C)c1)C(=O)O (single isomer, unassigned) [Compound 6B] | C (a value between 20 and 80 is marked “C”) | A (an ΔTagg value less than or equal to 5 °C is marked “A”)
C[C@@H](Cc1cccc([C@@]2(C)CCCC(C)(C)CS(=O)(=O)CCc3c(c(F)cc4[nH]ccc34)Oc3ccc(F)c(c3)-c3nc2nn3C)c1)C(=O)O (single isomer, unassigned) [Compound 7] | B (a value between 12-20 is marked “B”) | C (a value greater than 10 °C and less than or equal to 25 °C is marked “C”)
[2H]C([2H])([2H])C1(c2cccc(CC(C)C(=O)O)c2)COCC(C)(C)CS(=O)(=O)CCc2c(c(F)cc3[nH]ccc23)Oc2ccc(F)c(c2)-c2nc1nn2C (single isomer, unassigned) [Compound 8A, 3-[3-[22,28-difluoro-3,10,10-trimethyl-12,12-dioxo-6-(trideuteriomethyl)-8,24-dioxa-12lambda6-thia-3,4,19,30-tetrazapentacyclo[23.3.1.12,5.015,23.016,20]triaconta-1(29),2(30),4,15,17,20,22,25,27-nonaen-6-yl]phenyl]-2-methyl-propanoic acid] | B (a value between 12-20 is marked “B”) | C (a value greater than 10 °C and less than or equal to 25 °C is marked “C”)
[2H]C([2H])([2H])C1(c2cccc(CC(C)C(=O)O)c2)COCC(C)(C)CS(=O)(=O)CCc2c(c(F)cc3[nH]ccc23)Oc2ccc(F)c(c2)-c2nc1nn2C (single isomer, unassigned) [Compound 8B, 3-[3-[22,28-difluoro-3,10,10-trimethyl-12,12-dioxo-6-(trideuteriomethyl)-8,24-dioxa-12lambda6-thia-3,4,19,30-tetrazapentacyclo[23.3.1.12,5.015,23.016,20]triaconta-1(29),2(30),4,15,17,20,22,25,27-nonaen-6-yl]phenyl]-2-methyl-propanoic Acid] | A (a TECC value less than 12 is marked “A”) | A (an ΔTagg value less than or equal to 5 °C is marked “A”)
[2H]C([2H])([2H])C1(c2cccc(CC(C)C(=O)O)c2)CCCC(C([2H])([2H])[2H])(C([2H])([2H])[2H])CS(=O)(=O)CCc2c(c(F)cc3[nH]ccc23)Oc2ccc(F)c(c2)-c2nc1nn2C (single isomer, unassigned) [Compound 9A, 3-[3-[22,28-difluoro-3-methyl-12,12-dioxo-6,10,10-tris(trideuteriomethyl)-24-oxa-12lambda6-thia-3,4,19,30-tetrazapentacyclo[23.3.1.12,5.015,23.016,20]triaconta-1(29),2(30),4,15,17,20,22,25,27-nonaen-6-yl]phenyl]-2-methyl-propanoic Acid] | A (a TECC value less than 12 is marked “A”) | C (a value greater than 10 °C and less than or equal to 25 °C is marked “C”)
[2H]C([2H])([2H])C1(c2cccc(CC(C)C(=O)O)c2)CCCC(C([2H])([2H])[2H])(C([2H])([2H])[2H])CS(=O)(=O)CCc2c(c(F)cc3[nH]ccc23)Oc2ccc(F)c(c2)-c2nc1nn2C (single isomer, unassigned) [Compound 9B, 3-[3-[22,28-difluoro-3-methyl-12,12-dioxo-6,10,10-tris(trideuteriomethyl)-24-oxa-12lambda6-thia-3,4,19,30-tetrazapentacyclo[23.3.1.12,5.015,23.016,20]triaconta-1(29),2(30),4,15,17,20,22,25,27-nonaen-6-yl]phenyl]-2-methyl-propanoic Acid] | A (a TECC value less than 12 is marked “A”) | A (an ΔTagg value less than or equal to 5 °C is marked “A”)
[2H]C([2H])([2H])C1(c2cccc(CC(C)C(=O)O)c2)CCCC(C)(C)CS(=O)(=O)CCc2c(c(F)cc3[nH]ccc23)Oc2ccc(F)c(c2)-c2nc1nn2C (single isomer, unassigned) [Compound 10A, 3-[3-[22,28-difluoro-3,10,10-trimethyl-12,12-dioxo-6-(trideuteriomethyl)-24-oxa-12lambda6-thia-3,4,19,30-tetrazapentacyclo[23.3.1.12,5.015,23.016,20]triaconta-1(29),2(30),4,15,17,20,22,25,27-nonaen-6-yl]phenyl]-2-methyl-propanoic Acid] | A (a TECC value less than 12 is marked “A”) | C (a value greater than 10 °C and less than or equal to 25 °C is marked “C”)
[2H]C([2H])([2H])C1(c2cccc(CC(C)C(=O)O)c2)CCCC(C)(C)CS(=O)(=O)CCc2c(c(F)cc3[nH]ccc23)Oc2ccc(F)c(c2)-c2nc1nn2C (single isomer, unassigned) [Compound 10B, 3-[3-[22,28-difluoro-3,10,10-trimethyl-12,12-dioxo-6-(trideuteriomethyl)-24-oxa-12lambda6-thia-3,4,19,30-tetrazapentacyclo[23.3.1.12,5.015,23.016,20]triaconta-1(29),2(30),4,15,17,20,22,25,27-nonaen-6-yl]phenyl]-2-methyl-propanoic Acid] | A (a TECC value less than 12 is marked “A”) | B (a value above 5 °C and less than or equal to 10 °C is marked “B”)
CC(Cc1cccc(C2(C)CCC(=O)C(C)(C)CS(=O)(=O)CCc3c(c(F)cc4[nH]ccc34)Oc3ccc(F)c(c3)-c3nc2nn3C)c1)C(=O)O (single isomer, unassigned) [Compound 11A, 3-[3-[22,28-difluoro-3,6,10,10-tetramethyl-9,12,12-trioxo-24-oxa-12lambda6-thia-3,4,19,30-tetrazapentacyclo[23.3.1.12,5.015,23.016,20]triaconta-1(29),2(30),4,15,17,20,22,25,27-nonaen-6-yl]phenyl]-2-methyl-propanoic Acid] | C (a value between 20 and 80 is marked “C”) | C (a value greater than 10 °C and less than or equal to 25 °C is marked “C”)
CC(Cc1cccc(C2(C)CCC(=O)C(C)(C)CS(=O)(=O)CCc3c(c(F)cc4[nH]ccc34)Oc3ccc(F)c(c3)-c3nc2nn3C)c1)C(=O)O (single isomer, unassigned) [Compound 11B, 3-[3-[22,28-difluoro-3,6,10,10-tetramethyl-9,12,12-trioxo-24-oxa-12lambda6-thia-3,4,19,30-tetrazapentacyclo[23.3.1.12,5.015,23.016,20]triaconta-1(29),2(30),4,15,17,20,22,25,27-nonaen-6-yl]phenyl]-2-methyl-propanoic Acid] | A (a TECC value less than 12 is marked “A”) | A (an ΔTagg value less than or equal to 5 °C is marked “A”)
Cn1nc2nc1-c1cc(ccc1F)Oc1c(F)cc3[nH]ccc3c1CCS(=O)(=O)CC1(CCCC2(C)c2cccc(CCC(=O)O)c2)CC1 (single isomer, unassigned) [Compound 12A, 3-[3-(22,28-difluoro-3,6-dimethyl-12,12-dioxo-spiro[24-oxa-12lambda6-thia-3,4,19,30-tetrazapentacyclo[23.3.1.12,5.015,23.016,20]triaconta-1(29),2(30),4,15,17,20,22,25,27-nonaene-10,1′-cyclopropane]-6-yl)phenyl]propanoic Acid] | B (a value between 12-20 is marked “B”) | C (a value greater than 10 °C and less than or equal to 25 °C is marked “C”)
Cn1nc2nc1-c1cc(ccc1F)Oc1c(F)cc3[nH]ccc3c1CCS(=O)(=O)CC1(CCCC2(C)c2cccc(CCC(=O)O)c2)CC1 (single isomer, unassigned) [Compound 12B, 3-[3-(22,28-difluoro-3,6-dimethyl-12,12-dioxo-spiro[24-oxa-12lambda6-thia-3,4,19,30-tetrazapentacyclo[23.3.1.12,5.015,23.016,20]triaconta-1(29),2(30),4,15,17,20,22,25,27-nonaene-10,1′-cyclopropane]-6-yl)phenyl]propanoic acid] | C (a value between 20 and 80 is marked “C”) | A (an ΔTagg value less than or equal to 5 °C is marked “A”)
